Measurements published in US9655878B2, “Composition comprising coumestrol or a bean extract containing coumestrol” (AMOREPACIFIC CORPORATION, priority 2010, dated 2017).

Assays:
[1] = test system: 3T3-L1 mouse preadipocytes; experiment: Inhibition of adipocyte differentiation, Oil Red O staining of triglycerides; format: cell-based; set-up: dose or concentration left out as unconfirmed; conditions: coumestrol administered continuously, about 7 days differentiation; compared with rosiglitazone and berberine
Protocol: (§1) In order to evaluate the coumestrol's effect of inhibiting adipocyte differentiation, […] coumestrol (CMS) was administered continuously while 3T3-L1 mouse preadipocytes (CL-173, ATCC) were differentiated into adipocytes. […] Rosiglitazone (Rosi), which is known to promote adipocyte differentiation, was used as positive control and […] berberine (BBR), which is known to inhibit adipocyte differentiation, was used as negative control. On the day when adipocyte differentiation was started and on days 2, 4 and 6, the test substance was administered and the medium was changed. The adipocyte differentiation was carried out for about 7 days when the adipocyte differentiation was completed in the positive control group.
Then, differentiation of adipocytes was identified by staining triglycerides in the cells with Oil Red O (Sigma).

[2] = test system: aP2, Acrp30, PPAR, SREBP1c and FAS mRNA in adipocytes; experiment: Expression of adipocyte-specific genes by Q-PCR; format: cell-based, mouse; set-up: dose or concentration left out as unconfirmed; conditions: coumestrol, relative to untreated group
Protocol: as §1
Also, expression of adipocyte-specific genes in the in the adipocytes was investigated by Q-PCR. The genes tested were aP2 (fatty acid binding protein 4, adipocyte specific type), Acrp30 (adiponectin), PPAR (peroxisome proliferator-activated receptor), SREBP1c (sterol regulatory element binding protein 1c) and FAS (fatty acid synthase), which are used as molecular markers of adipocyte differentiation and fatty acid synthesis.

mouse spleen cells = experiment: Immune cell proliferating activity (CCK-8); format: cell-based, ICR mouse; conditions: 44 hours, relative to untreated group (100)
Protocol: Spleen was aseptically removed from an ICR mouse sacrificed by cervical dislocation. The spleen was washed with an RPMI 1640 solution and lightly smashed with a sterilized glass rod to isolate the mouse spleen cells. A suspension of the isolated cells was passed through a 200-mesh stainless steel sieve (Sigma Chemical Co., St. Louis, Mo., USA) and centrifuged for 10 minutes at 4° C. and 3,000 rpm in a 50-mL centrifuge tube. The resulting cell pellets were suspended in a lysing buffer (Tris-buffered ammonium chloride; 0.87% NH4Cl, pH 7.2) for 5 minutes to remove red blood cells. The cells were washed twice with RPMI by centrifugal washing, diluted to 5.0×10^6 cells/mL in 10%-FBS RPMI 1640, and seeded on a 96-well plate, with 90 μL per each well, for measurement of cell proliferating activity. After preparing a stock solution such that the final concentration of coumestrol was 0.1 or 1 μM and adding 10 μL to each well, the cells were cultured for 44 hours and the proliferating activity of the spleen cells was measured (CCK-8, Dojindo Laboratories, Japan). 10 μL of 10 μg/mL LPS was used as positive control.

[3] = test system: Human umbilical vein endothelial cells (HUVECs); experiment: Nicotine detoxifying effect, viability of vascular endothelial cells; format: cell-based; conditions: HUVEC, 25 mM nicotine, 24 hours, relative to untreated group, nicotine only 55.1
Protocol: Human umbilical vein endothelial cells (HUVECs, CRL-2873, ATCC) were used to evaluate the coumestrol's effect against nicotine which is a major toxic substance included in cigarettes. HUVECs were cultured under the condition of 37° C. and 5% CO2 using the microvascular endothelial cell growth medium-2 (EGM-2). The cells were seeded onto a 96-well plate, with 2×10^4 cells per well, and cultured for about 24 hours in a medium containing 10% FBS until ˜80% confluency. After treating with nicotine to a final concentration of 25 mM, the cells were cultured for 24 hours with 0.1, 1 or 10 μM coumestrol, except for the negative control group.

SH-SY5Y cells [4] = experiment: cells; format: cell-based; conditions: Homo sapiens, read-out: Viability of nerve cells (%)
Protocol: (§2) SH-SY5Y cells (CRL-2266, ATCC) were used to evaluate the coumestrol's effect of protecting nerve cells from neurotoxins. The cells were cultured in a medium comprising 90% DMEM, 10% fetal calf serum, 100 IU/mL penicillin and 100 μg/mL streptomycin under the condition of 37° C. and 5% CO2. When the cells grew confluent, they were harvested with trypsin, diluted on a 96-well plate to 1×10^4 cells per well, and then grafted onto a culture dish. 24 hours later, after treating the cultured cells with 0.01, 0.1 or 1 μM coumestrol, the cells were treated with 50 μM 6-OHDA 2 hours later to induce cytotoxicity. A negative control group was treated only with 50 μM 6-OHDA. Also, mitochondrial potential of the cells was measured using the JC-1 fluorescent reagent (Beyotime, China).

SH-SY5Y cells [5] = experiment: Inhibition of decline of mitochondrial potential (JC-1); format: cell-based; conditions: 50 μM 6-OHDA, negative control 0
Protocol: as §2

SH-SY5Y cells [6] = experiment: Scavenging of reactive oxygen species produced by 6-OHDA (DCFH-DA); format: cell-based; conditions: 50 μM 6-OHDA, 6 hours, relative to negative control
Protocol: The same cells used in Test Example 4-1 were cultured under the same condition. The cultured cells were treated with 0.01, 0.1 or 1 μM coumestrol and then treated with 50 μM 6-OHDA 2 hours later to induce increase of reactive oxygen species (ROS) in the cells. After culturing the cells for 6 hours in an incubator, the quantity of ROS in the cells was measured using DCFH-DA and the decrease of the ROS was evaluated relative to the negative control group. The fluorescence intensity of DCF was measured with the Wallac VICTOR2 fluorometer (Wallac, Turku, Finland) at excitation wavelength of 485 nm and emission wavelength of 530 nm. ROS scavenging effect (%) relative to the negative control group was calculated from the measured fluorescence intensity.

[7] = cited from earlier work

O=c1oc2cc(O)ccc2c2oc3cc(O)ccc3c12 [Coumestrol, 3,9-dihydroxy-6H-benzofuro(3,2-c)(1)benzopyran-6-one]
adipocyte differentiation (Oil Red O stained area) [1]: remarkably decreased
mRNA expression of the molecular markers of adipocyte differentiation and fatty acid synthesis [2]: remarkably decreased
activity at 0.1 µM (mouse spleen cells; 0.1 μM): 278%
activity at 1 µM (mouse spleen cells; 1 μM): 283%
viability at 0.1 µM ([3]; 0.1 μM): 67.2%
viability at 1 µM ([3]; 1 μM): 72.2%
viability at 10 µM ([3]; 10 μM): 88.9%
viability at 0.01 µM (SH-SY5Y cells [4]): 94.4%
viability at 0.1 µM (SH-SY5Y cells [4]): 96.5%
viability at 1 µM (SH-SY5Y cells [4]): 98.2%
Effect of inhibiting decline of mitochondrial potential (%) (SH-SY5Y cells [5]; 0.01 μM): 13.2%
Effect of inhibiting decline of mitochondrial potential (%) (SH-SY5Y cells [5]; 0.1 μM): 29.1%
Effect of inhibiting decline of mitochondrial potential (%) (SH-SY5Y cells [5]; 1 μM): 43.0%
ROS scavenging effect (%) (SH-SY5Y cells [6]; 0.01 μM): 73.0%
ROS scavenging effect (%) (SH-SY5Y cells [6]; 0.1 μM): 86.7%
ROS scavenging effect (%) (SH-SY5Y cells [6]; 1 μM): 93.5%
bioavailability upon oral administration [7]: about 11.7%
